# Results published in ChEMBL document CHEMBL1140986, “Sidechain-linked inhibitors of HIV-1 protease dimerization” (Bioorg Med Chem, 2009).
# The source made the active and inactive calls. No cut-off for these calls is given here. Non-standard residues stand in square brackets, D forms with d. Residues, ends and D or L forms follow the SMILES beside them. *: point of attachment. C16 diacid = O=C(O)CCCCCCCCCCCCCCC(=O)*; aThr = C[C@H](O)[C@H](N)C(=O)O
# How the values were obtained:
# Protease [1] = molecular target: T1, Protease (Human immunodeficiency virus 1, UniProt Q9YQ12); assay: Inhibition of HIV1 protease dimerization by Zhang-Poorman kinetic assay
# Protease [2] = molecular target: T1, Protease; assay: Inhibition of HIV1 protease by continuous fluorometric assay
# [3] = Solubility in water; format: physicochemical
# [4] = molecular target: Protease (Human immunodeficiency virus 1) (UniProt Q9YQ12); assay: Inhibition of HIV1 protease dimerization at 65.3 uM by Zhang-Poorman kinetic assay
# [5] = molecular target: Protease (Human immunodeficiency virus 1) (UniProt Q9YQ12); assay: Binding affinity to HIV1 protease allosteric site at 10 to 50 uM after 1 hr by fluorescence-based cross competition kinetic assay in presence of acetyl-pepstatin
# [6] = molecular target: Protease (Human immunodeficiency virus 1) (UniProt Q9YQ12); assay: Binding affinity to HIV1 protease active site at 10 to 50 uM after 1 hr by fluorescence-based cross competition kinetic assay in presence of acetyl-pepstatin
# [7] = molecular target: Protease (Human immunodeficiency virus 1) (UniProt Q9YQ12); assay: Inhibition of HIV1 protease at 130 uM by competitive Lineweaver-Burke plot
# Protease [8] = molecular target: T1, Protease; assay: Inhibition of HIV1 protease by competitive inhibition assay
SMILES,Ki (Protease [1]),IC50 (Protease [2]),further results
CCCCC(=O)N[C@@H](CSCCOCCOCCSC[C@H](NC(=O)CCCC)C(=O)N[C@@H](CC(C)C)C(=O)N[C@@H](Cc1ccccc1)C(N)=O)C(=O)N[C@@H](Cc1ccccc1)C(=O)O,6.8 µM,50 µM,–
CCCCCC(=O)N[C@@H](CSCCOCCOCCSC[C@H](NC(=O)CCCCC)C(=O)N[C@@H](CC(C)C)C(=O)N[C@@H](Cc1ccccc1)C(N)=O)C(=O)N[C@@H](Cc1ccccc1)C(=O)O,2.3 µM,14.9 µM,solubility [3]: 90 µM
CC(C)C[C@H](NC(=O)[C@H](CSCCOCCOCCSC[C@H](NC(=O)C1CCCCC1)C(=O)N[C@@H](Cc1ccccc1)C(=O)O)NC(=O)C1CCCCC1)C(=O)N[C@@H](Cc1ccccc1)C(N)=O,–,19.5 µM,–
CCC(=O)N[C@@H](CSCCOCCOCCSC[C@H](NC(=O)CC)C(=O)N[C@@H](CC(C)C)C(=O)N[C@@H](Cc1ccccc1)C(N)=O)C(=O)N[C@@H](Cc1ccccc1)C(=O)O,–,130 µM,Activity [4]: inactive; Activity [5]: Active; Activity [6]: inactive; Activity [7]: Active; Ki (Protease [8]): 16.9 µM
CC(C)C[C@H](NC(=O)[C@@H](NC(=O)CCCCCCCCCCCCCCC(=O)N[C@@H](CC(N)=O)C(=O)N[C@@H](Cc1ccccc1)C(=O)O)[C@@H](C)O)C(=O)N[C@@H](Cc1ccccc1)C(N)=O ({Phe-Asn-C16 diacid}-Thr-Leu-Phe-NH2),–,–,solubility [3]: 1 µM
CCCC(=O)N[C@@H](CSCCOCCOCCSC[C@H](NC(=O)CCC)C(=O)N[C@@H](CC(C)C)C(=O)N[C@@H](Cc1ccccc1)C(N)=O)C(=O)N[C@@H](Cc1ccccc1)C(=O)O,8.3 µM,87 µM,–
CCCCCCC(=O)N[C@@H](CSCCOCCOCCSC[C@H](NC(=O)CCCCCC)C(=O)N[C@H](C(=O)N[C@@H](Cc1ccccc1)C(N)=O)[C@H](C)CC)C(=O)N[C@@H](Cc1ccccc1)C(=O)O,510 µM,1.2 µM,–
CC(C)C[C@H](NC(=O)[C@H](CSCCOCCOCCSC[C@H](NC(=O)CCC1CCCCC1)C(=O)N[C@@H](Cc1ccccc1)C(=O)O)NC(=O)CCC1CCCCC1)C(=O)N[C@@H](Cc1ccccc1)C(N)=O,–,2.5 µM,–
CC(C)C[C@H](NC(=O)[C@H](CSCCOCCOCCSC[C@H](NC(=O)CCCCC1CCCCC1)C(=O)N[C@@H](Cc1ccccc1)C(=O)O)NC(=O)CCCCC1CCCCC1)C(=O)N[C@@H](Cc1ccccc1)C(N)=O,88 µM,675 µM,–
CC(C)C[C@H](NC(=O)[C@@H](NC(=O)CCCCCCCCCCCCCCC(=O)N[C@@H](CC(N)=O)C(=O)N[C@@H](Cc1ccccc1)C(=O)O)[C@H](C)O)C(=O)N[C@@H](Cc1ccccc1)C(N)=O ({Phe-Asn-C16 diacid}-[aThr]-Leu-Phe-NH2),3 µM,–,–
CC(C)C[C@H](NC(=O)[C@H](CSCCOCCOCCSC[C@H](NC(=O)COc1ccccc1)C(=O)N[C@@H](Cc1ccccc1)C(=O)O)NC(=O)COc1ccccc1)C(=O)N[C@@H](Cc1ccccc1)C(N)=O,1.25 µM,2.9 µM,–
CC(C)C[C@H](NC(=O)[C@H](CSCCOCCOCCSC[C@H](NC(=O)Cc1ccccc1)C(=O)N[C@@H](Cc1ccccc1)C(=O)O)NC(=O)Cc1ccccc1)C(=O)N[C@@H](Cc1ccccc1)C(N)=O,–,2.5 µM,–
CC[C@@H](C)[C@H](NC(=O)[C@H](CSCCOCCOCCSC[C@H](NC(=O)CCCCC1CCCCC1)C(=O)N[C@@H](Cc1ccccc1)C(=O)O)NC(=O)CCCCC1CCCCC1)C(=O)N[C@@H](Cc1ccccc1)C(N)=O,40.1 µM,64 µM,–
CC(C)C[C@H](NC(=O)[C@H](CSCCOCCOCCSC[C@H](NC(=O)CC1CCCCC1)C(=O)N[C@@H](Cc1ccccc1)C(=O)O)NC(=O)CC1CCCCC1)C(=O)N[C@@H](Cc1ccccc1)C(N)=O,–,9.5 µM,–
CCCCCCC(=O)N[C@@H](CSCCOCCOCCSC[C@H](NC(=O)CCCCCC)C(=O)N[C@@H](CC(C)C)C(=O)N[C@@H](Cc1ccccc1)C(N)=O)C(=O)N[C@@H](Cc1ccccc1)C(=O)O,1.3 µM,4 µM,solubility [3]: 80 µM
CC(C)C[C@H](NC(=O)[C@H](CSCCOCCOCCSC[C@H](NC(=O)CCc1ccccc1)C(=O)N[C@@H](Cc1ccccc1)C(=O)O)NC(=O)CCc1ccccc1)C(=O)N[C@@H](Cc1ccccc1)C(N)=O,–,6.5 µM,–
